Test results reported in patent US20260007684A1, “AMIDE DERIVATIVES FOR INHIBITING NLRP3 AND USES THEREOF” (Ventus Therapeutics U.S., Inc., priority 2023, published 2026).

Molecular target: human NLRP3 (Homo sapiens (Human), UniProt Q96P20)
Experiment: Scintillation Proximity (SPA) NLRP3 Assay: displacement of 3H-MCC950
Type: binding
Settings: displacement of 3H-MCC950; read-out: SPA IC50

human NLRP3, sequence (Q96P20 whole entry): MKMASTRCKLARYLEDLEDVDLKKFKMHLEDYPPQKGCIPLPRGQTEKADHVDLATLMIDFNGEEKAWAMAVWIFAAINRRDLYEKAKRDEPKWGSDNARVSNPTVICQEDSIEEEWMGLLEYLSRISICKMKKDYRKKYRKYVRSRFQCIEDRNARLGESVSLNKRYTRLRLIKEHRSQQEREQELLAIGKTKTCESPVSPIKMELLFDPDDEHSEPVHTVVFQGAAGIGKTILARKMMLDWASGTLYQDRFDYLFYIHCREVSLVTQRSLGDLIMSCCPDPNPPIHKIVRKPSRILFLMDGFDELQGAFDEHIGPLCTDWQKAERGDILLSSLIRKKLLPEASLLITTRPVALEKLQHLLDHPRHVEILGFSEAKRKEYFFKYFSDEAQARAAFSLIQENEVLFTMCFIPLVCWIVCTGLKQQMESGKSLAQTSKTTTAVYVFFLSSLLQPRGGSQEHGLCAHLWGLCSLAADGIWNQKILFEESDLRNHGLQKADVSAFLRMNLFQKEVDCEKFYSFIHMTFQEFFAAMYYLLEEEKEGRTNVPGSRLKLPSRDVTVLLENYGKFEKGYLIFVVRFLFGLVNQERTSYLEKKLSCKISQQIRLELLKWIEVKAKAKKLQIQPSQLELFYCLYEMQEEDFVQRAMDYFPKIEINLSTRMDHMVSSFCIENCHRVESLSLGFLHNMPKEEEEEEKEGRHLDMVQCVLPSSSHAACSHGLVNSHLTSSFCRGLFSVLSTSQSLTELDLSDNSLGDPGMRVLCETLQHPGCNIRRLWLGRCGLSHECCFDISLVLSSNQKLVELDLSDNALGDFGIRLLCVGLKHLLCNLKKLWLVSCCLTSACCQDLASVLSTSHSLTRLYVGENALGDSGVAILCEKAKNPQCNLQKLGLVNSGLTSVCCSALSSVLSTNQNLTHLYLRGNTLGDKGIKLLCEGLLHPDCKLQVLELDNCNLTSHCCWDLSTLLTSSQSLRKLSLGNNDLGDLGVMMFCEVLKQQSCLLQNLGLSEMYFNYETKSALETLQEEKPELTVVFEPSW

Question: For C[C@H]1C[C@@H](NC(=O)C2(c3ccc(OC(F)F)cc3O)CC2)[C@@H]2CC[C@H]1N2c1nnn[nH]1 [43C*, N-((1S,2R,4S,5R)-4-methy1-8-(1H-tetrazol-5-yl)-8-azabicyclo[3.2.1]octan-2-yl)-1-(4-(difluoromethoxy)-2-hydroxyphenyl)cyclopropane-1-carboxamide], which IC50 is on record?
Answer: > 100 µM

Question: Which IC50 does the source give for C[C@H]1C[C@H](NC(=O)C2(c3ccc(OC(F)F)cc3O)CC2)[C@@H]2CC[C@H]1N2c1nnn[nH]1 [43D*, N-((1S,2S,4S,5R)-4-methy1-8-(1H-tetrazol-5-yl)-8-azabicyclo[3.2.1]octan-2-yl)-1-(4-(difluoromethoxy)-2-hydroxyphenyl)cyclopropane-1-carboxamide] here?
Answer: 10 to 50 µM

Question: With O=C(N[C@H]1CC[C@@H]2CC[C@H]1N2c1nnn[nH]1)C1(c2ccc(Cl)cc2O)CC1 [75B*, N-((1R,2S,5R)-8-(1H-tetrazol-5-yl)-8-azabicyclo[3.2.1]octan-2-yl)-1-(4-chloro-2-hydroxyphenyl)cyclopropane-1-carboxamide] as the compound, how does the IC50 read?
Answer: 1 to 10 µM

Question: O=C(N[C@H]1CC[C@@H]2CC[C@H]1N2c1nnn[nH]1)C1(c2ccc(Cl)c(F)c2O)CC1 [76B*, N-((1R,2S,5R)-8-(1H-tetrazol-5-yl)-8-azabicyclo[3.2.1]octan-2-yl)-1-(4-chloro-3-fluoro-2-hydroxyphenyl)cyclopropane-1-carboxamide] was tested. Which IC50 did it give?
Answer: 10 to 50 µM

Question: With O=C(N[C@H]1CC[C@@H]2CC[C@H]1N2c1nnn[nH]1)C1(c2ccc(OC(F)F)cc2O)CC1 [77B*, N-((1R,2S,5R)-8-(1H-tetrazol-5-yl)-8-azabicyclo[3.2.1]octan-2-yl)-1-(4-(difluoromethoxy)-2-hydroxyphenyl)cyclopropane-1-carboxamide] as the compound, how does the IC50 read?
Answer: 10 to 50 µM

Question: O=C(N[C@H]1CC[C@@H]2CC[C@H]1N2c1nnn[nH]1)C1(c2ccc(OC(F)(F)F)cc2O)CC1 [78B*, N-((1R,2S,5R)-8-(1H-tetrazol-5-yl)-8-azabicyclo[3.2.1]octan-2-yl)-1-(2-hydroxy-4-(trifluoromethoxy)phenyl)cyclopropane-1-carboxamide] was tested. Which IC50 did it give?
Answer: 1 to 10 µM

Question: How did the IC50 turn out when C[C@@H]1C[C@H](NC(=O)C2(c3ccc(C(F)(F)F)cc3)CC2)[C@H]2CC[C@@H]1N2c1nnn[nH]1 [79B*, N-((1R,2S,4R,5S)-4-methy1-8-(1H-tetrazol-5-yl)-8-azabicyclo[3.2.1]octan-2-yl)-1-(4-(trifluoromethyl)phenyl)cyclopropane-1-carboxamide] was run?
Answer: 10 to 50 µM

Question: Which IC50 does the source give for C[C@H]1C[C@@H](NC(=O)C2(c3ccc(C(F)(F)F)cc3)CC2)[C@@H]2CC[C@H]1N2c1nnn[nH]1 [79C*, N-((1S,2R,4S,5R)-4-methy1-8-(1H-tetrazol-5-yl)-8-azabicyclo[3.2.1]octan-2-yl)-1-(4-(trifluoromethyl)phenyl)cyclopropane-1-carboxamide] here?
Answer: 10 to 50 µM

Question: How did the IC50 turn out when C[C@H]1C[C@H](NC(=O)C2(c3ccc(C(F)(F)F)cc3)CC2)[C@@H]2CC[C@H]1N2c1nnn[nH]1 [79D*, N-((1S,2S,4S,5R)-4-methyl-8-(1H-tetrazol-5-yl)-8-azabicyclo[3.2.1]octan-2-yl)-1-(4-(trifluoromethyl)phenyl)cyclopropane-1-carboxamide] was run?
Answer: 10 to 50 µM

Question: For C[C@@H]1C[C@H](NC(=O)C2(c3ccc(Cl)cc3)CC2)[C@H]2CC[C@@H]1N2c1nnn[nH]1 [80B*, 1-(4-chlorophenyl)-N-((1R,2S,4R,5S)-4-methyl-8-(1H-tetrazol-5-yl)-8-azabicyclo[3.2.1]octan-2-yl)cyclopropane-1-carboxamide], which IC50 is on record?
Answer: 10 to 50 µM

Question: For C[C@H]1C[C@@H](NC(=O)C2(c3ccc(Cl)cc3)CC2)[C@@H]2CC[C@H]1N2c1nnn[nH]1 [80C*, 1-(4-chlorophenyl)-N-((1S,2R,4S,5R)-4-methyl-8-(1H-tetrazol-5-yl)-8-azabicyclo[3.2.1]octan-2-yl)cyclopropane-1-carboxamide], which IC50 is on record?
Answer: > 100 µM

Question: For C[C@H]1C[C@H](NC(=O)C2(c3ccc(Cl)cc3)CC2)[C@@H]2CC[C@H]1N2c1nnn[nH]1 [80D*, 1-(4-chlorophenyl)-N-((1S,2S,4S,5R)-4-methyl-8-(1H-tetrazol-5-yl)-8-azabicyclo[3.2.1]octan-2-yl)cyclopropane-1-carboxamide], which IC50 is on record?
Answer: 50 to 100 µM

Question: C[C@@H]1C[C@H](NC(=O)C2(c3ccc(C4CC4)cc3)CC2)[C@H]2CC[C@@H]1N2c1nnn[nH]1 [81B*, 1-(4-cyclopropylphenyl)-N-((1R,2S,4R,5S)-4-methyl-8-(1H-tetrazol-5-yl)-8-azabicyclo[3.2.1]octan-2-yl)cyclopropane-1-carboxamide] was tested. Which IC50 did it give?
Answer: 50 to 100 µM

Question: How did the IC50 turn out when C[C@H]1C[C@@H](NC(=O)C2(c3ccc(C4CC4)cc3)CC2)[C@@H]2CC[C@H]1N2c1nnn[nH]1 [81C*, 1-(4-cyclopropylphenyl)-N-((1S,2R,4S,5R)-4-methyl-8-(1H-tetrazol-5-yl)-8-azabicyclo[3.2.1]octan-2-yl)cyclopropane-1-carboxamide] was run?
Answer: 50 to 100 µM

Question: How did the IC50 turn out when C[C@H]1C[C@H](NC(=O)C2(c3ccc(C4CC4)cc3)CC2)[C@@H]2CC[C@H]1N2c1nnn[nH]1 [81D*] was run?
Answer: 10 to 50 µM

Question: How did the IC50 turn out when C[C@@H]1C[C@H](NC(=O)C2(c3ccc(OC(F)(F)F)cc3)CC2)[C@H]2CC[C@@H]1N2c1nnn[nH]1 [82B*, N-((1R,2S,4R,5S)-4-methyl-8-(1H-tetrazol-5-yl)-8-azabicyclo[3.2.1]octan-2-yl)-1-(4-(trifluoromethoxy)phenyl)cyclopropane-1-carboxamide] was run?
Answer: > 100 µM

Question: How did the IC50 turn out when C[C@H]1C[C@@H](NC(=O)C2(c3ccc(OC(F)(F)F)cc3)CC2)[C@@H]2CC[C@H]1N2c1nnn[nH]1 [82C*, N-((1S,2R,4S,5R)-4-methyl-8-(1H-tetrazol-5-yl)-8-azabicyclo[3.2.1]octan-2-yl)-1-(4-(trifluoromethoxy)phenyl)cyclopropane-1-carboxamide] was run?
Answer: > 100 µM

Question: With C[C@H]1C[C@H](NC(=O)C2(c3ccc(OC(F)(F)F)cc3)CC2)[C@@H]2CC[C@H]1N2c1nnn[nH]1 [82D*, N-((1S,2S,4S,5R)-4-methy1-8-(1H-tetrazol-5-yl)-8-azabicyclo[3.2.1]octan-2-yl)-1-(4-(trifluoromethoxy)phenyl)cyclopropane-1-carboxamide] as the compound, how does the IC50 read?
Answer: > 100 µM

Question: How did the IC50 turn out when C[C@@H]1C[C@H](NC(=O)C2(c3ccc(C4CC4)c(F)c3O)CC2)[C@H]2CC[C@@H]1N2c1nnn[nH]1 [83B*, 1-(4-cyclopropy1-3-fluoro-2-hydroxyphenyl)-N-((1R,2S,4R,5S)-4-methyl-8-(1H-tetrazol-5-yl)-8-azabicyclo[3.2.1]octan-2-yl)cyclopropane-1-carboxamide] was run?
Answer: 10 to 50 µM

Question: How did the IC50 turn out when C[C@H]1C[C@@H](NC(=O)C2(c3ccc(C4CC4)c(F)c3O)CC2)[C@@H]2CC[C@H]1N2c1nnn[nH]1 [83C*, 1-(4-cyclopropy1-3-fluoro-2-hydroxyphenyl)-N-((1S,2R,4S,5R)-4-methy1-8-(1H-tetrazol-5-yl)-8-azabicyclo[3.2.1]octan-2-yl)cyclopropane-1-carboxamide] was run?
Answer: > 100 µM

Question: Which IC50 does the source give for C[C@H]1C[C@H](NC(=O)C2(c3ccc(C4CC4)c(F)c3O)CC2)[C@@H]2CC[C@H]1N2c1nnn[nH]1 [83D*, 1-(4-cyclopropyl-3-fluoro-2-hydroxyphenyl)-N-((1S,2S,4S,5R)-4-methy1-8-(1H-tetrazol-5-yl)-8-azabicyclo[3.2.1]octan-2-yl)cyclopropane-1-carboxamide] here?
Answer: > 100 µM

Question: C[C@@H]1C[C@H](NC(=O)C2(c3ccc(C(F)(F)F)cc3F)CC2)[C@H]2CC[C@@H]1N2c1nnn[nH]1 [84B*, 1-(2-fluoro-4-(trifluoromethyl)phenyl)-N-((1R,2S,4R,5S)-4-methyl-8-(1H-tetrazol-5-yl)-8-azabicyclo[3.2.1]octan-2-yl)cyclopropane-1-carboxamide] was tested. Which IC50 did it give?
Answer: 10 to 50 µM

Question: With C[C@H]1C[C@@H](NC(=O)C2(c3ccc(C(F)(F)F)cc3F)CC2)[C@@H]2CC[C@H]1N2c1nnn[nH]1 [84C*, 1-(2-fluoro-4-(trifluoromethyl)phenyl)-N-((1S,2R,4S,5R)-4-methy1-8-(1H-tetrazol-5-yl)-8-azabicyclo[3.2.1]octan-2-yl)cyclopropane-1-carboxamide] as the compound, how does the IC50 read?
Answer: > 100 µM

Question: With C[C@H]1C[C@H](NC(=O)C2(c3ccc(C(F)(F)F)cc3F)CC2)[C@@H]2CC[C@H]1N2c1nnn[nH]1 [84D*, 1-(2-fluoro-4-(trifluoromethyl)phenyl)-N-((1S,2S,4S,5R)-4-methy1-8-(1H-tetrazol-5-yl)-8-azabicyclo[3.2.1]octan-2-yl)cyclopropane-1-carboxamide] as the compound, how does the IC50 read?
Answer: > 100 µM

Question: With C[C@@H]1C[C@H](NC(=O)C2(c3ccc(SC(F)F)cc3)CC2)[C@H]2CC[C@@H]1N2c1nnn[nH]1 [85B*, 1-(4-((difluoromethyl)thio)phenyl)-N-((1R,2S,4R,5S)-4-methyl-8-(1H-tetrazol-5-yl)-8-azabicyclo[3.2.1]octan-2-yl)cyclopropane-1-carboxamide] as the compound, how does the IC50 read?
Answer: 10 to 50 µM

Question: Which IC50 does the source give for C[C@H]1C[C@@H](NC(=O)C2(c3ccc(SC(F)F)cc3)CC2)[C@@H]2CC[C@H]1N2c1nnn[nH]1 [85C*, 1-(4-((difluoromethyl)thio)phenyl)-N-((1S,2R,4S,5R)-4-methyl-8-(1H-tetrazol-5-yl)-8-azabicyclo[3.2.1]octan-2-yl)cyclopropane-1-carboxamide] here?
Answer: > 100 µM

Question: C[C@H]1C[C@H](NC(=O)C2(c3ccc(SC(F)F)cc3)CC2)[C@@H]2CC[C@H]1N2c1nnn[nH]1 [85D*, 1-(4-((difluoromethyl)thio)phenyl)-N-((1S,2S,4S,5R)-4-methy1-8-(1H-tetrazol-5-yl)-8-azabicyclo[3.2.1]octan-2-yl)cyclopropane-1-carboxamide] was tested. Which IC50 did it give?
Answer: > 100 µM

Question: Which IC50 does the source give for C[C@@H]1C[C@H](NC(=O)C2(c3ccc(C(F)F)cc3)CC2)[C@H]2CC[C@@H]1N2c1nnn[nH]1 [86B*, 1-(4-(difluoromethyl)phenyl)-N-((1R,2S,4R,5S)-4-methyl-8-(1H-tetrazol-5-yl)-8-azabicyclo[3.2.1]octan-2-yl)cyclopropane-1-carboxamide] here?
Answer: 10 to 50 µM

Question: Which IC50 does the source give for C[C@H]1C[C@@H](NC(=O)C2(c3ccc(C(F)F)cc3)CC2)[C@@H]2CC[C@H]1N2c1nnn[nH]1 [86C*, 1-(4-(difluoromethyl)phenyl)-N-((1S,2R,4S,5R)-4-methyl-8-(1H-tetrazol-5-yl)-8-azabicyclo[3.2.1]octan-2-yl)cyclopropane-1-carboxamide] here?
Answer: > 100 µM

Question: How did the IC50 turn out when C[C@H]1C[C@H](NC(=O)C2(c3ccc(C(F)F)cc3)CC2)[C@@H]2CC[C@H]1N2c1nnn[nH]1 [86D*, 1-(4-(difluoromethyl)phenyl)-N-((1S,2S,4S,5R)-4-methyl-8-(1H-tetrazol-5-yl)-8-azabicyclo[3.2.1]octan-2-yl)cyclopropane-1-carboxamide] was run?
Answer: > 100 µM
